Experimental data from publication PMC11807261 (ACS infectious diseases, 2022).
“Also recorded” adds a separate entry of the source. Where two headings read alike, the source gives them in different places.

Columns and labels:
Mtb GlnA1 = molecular target: T1, Mtb GlnA1 (Mycobacterium tuberculosis, UniProt P9WN39); assay: biochemical
T1 construct: His6 (N); made in house; host or cells: E. coli BL21(DE3)

[1] = molecular target: recombinant human glutamine synthetase (GS) (Homo sapiens, UniProt P15104); assay: biochemical; type: biochemical; conditions: for inhibition of recombinant human GS: LIN at 100 µM (Figure S7)
Chain of recombinant human glutamine synthetase (GS) (P15104 whole entry): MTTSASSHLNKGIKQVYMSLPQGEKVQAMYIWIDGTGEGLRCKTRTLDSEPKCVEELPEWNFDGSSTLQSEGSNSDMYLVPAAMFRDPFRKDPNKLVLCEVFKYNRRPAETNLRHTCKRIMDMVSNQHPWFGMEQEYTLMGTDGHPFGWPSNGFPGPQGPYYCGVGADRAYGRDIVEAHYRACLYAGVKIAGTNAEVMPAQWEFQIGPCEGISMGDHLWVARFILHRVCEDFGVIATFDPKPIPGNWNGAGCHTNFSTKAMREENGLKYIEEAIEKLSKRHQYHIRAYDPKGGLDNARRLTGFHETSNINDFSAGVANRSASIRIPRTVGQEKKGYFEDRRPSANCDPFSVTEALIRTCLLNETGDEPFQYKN

Mtb H37Rv = type: cell-based, Mycobacterium tuberculosis
Cytotoxicity (CC50) = type: cell-based; conditions: African green monkey, Vero E6 cells
THP-1 macrophages = type: cell-based
[2] = test system: Mtb H37Rv within THP-1 macrophages; type: cell-based, Mycobacterium tuberculosis
[3] = compounds directly from MMV Pathogen Box library plates, read-out: IC50 (μM), library
[4] = compounds resupplied from MMV, mean ± SE (n=3), read-out: IC50 (μM), resupply

T1 sequence (P9WN39 whole entry): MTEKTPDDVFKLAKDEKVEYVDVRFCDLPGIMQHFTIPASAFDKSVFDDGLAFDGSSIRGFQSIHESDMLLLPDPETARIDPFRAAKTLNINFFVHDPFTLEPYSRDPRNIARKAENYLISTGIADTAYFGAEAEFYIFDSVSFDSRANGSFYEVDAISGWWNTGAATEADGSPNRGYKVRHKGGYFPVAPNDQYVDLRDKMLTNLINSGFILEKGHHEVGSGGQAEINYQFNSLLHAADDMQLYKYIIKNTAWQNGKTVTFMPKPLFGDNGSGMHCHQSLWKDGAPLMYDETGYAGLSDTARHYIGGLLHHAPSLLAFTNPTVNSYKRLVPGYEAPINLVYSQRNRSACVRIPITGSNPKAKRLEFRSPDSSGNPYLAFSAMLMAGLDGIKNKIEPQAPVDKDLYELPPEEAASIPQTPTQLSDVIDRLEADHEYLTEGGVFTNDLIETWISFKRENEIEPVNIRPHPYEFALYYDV

Question: For `CP(=O)(O)CCC(N)C(=O)O` (racemic) [PPT, DL-phosphinothricin], which IC50 (Mtb GlnA1) is on record?
Answer: The IC50 was 4.45 ± 0.19 µM.

Question: Which IC50 (Mtb GlnA1; [3]) does the source give for `c1ccc(-c2nc(NC3CCCCC3)cc(C3CC3)n2)nc1` [MMV021013] here?
Answer: The IC50 was 0.69 µM.

Question: And the IC50 (Mtb GlnA1; [4])?
Answer: The IC50 was 0.69 ± 0.08 µM.

Question: Which IC50 (Mtb GlnA1) does the source give for `COc1ccc2cc(-c3nc(C(C)(C)C)[nH]c3-c3ccnc(N)c3)ccc2c1` [11a] here?
Answer: The IC50 was 0.53 ± 0.027 µM.

Question: What about the “inhibition of recombinant human GS” value [1] of the same compound?
Answer: The value was “did inhibit it considerably”.

Question: What about the IC50 ([1]; malachite green assay, read-out: IC50 against human GS) of the same compound?
Answer: Its IC50 is roughly 10400 nM.

Question: Which “growth inhibition concentration (GIC)” value (Mtb H37Rv) does the source give for `C[C@]1(O)C[C@@H](c2nc(-c3ccc4ccc(-c5ccccc5)nc4c3)c3c(N)nccn32)C1` [LIN, linsitinib] here?
Answer: The value was ~ 21 μM.

Question: And the CC50 (Cytotoxicity (CC50))?
Answer: Its CC50 is 67500 nM.

Question: And the “inhibition of recombinant human GS” value [1]?
Answer: The value was “did not inhibit; also recorded: does not inhibit”.

Question: What about the “level of mTOR phosphorylation” value (THP-1 macrophages) of the same compound?
Answer: The value was “reduce the level of mTOR phosphorylation”.

Question: What about the “level of p62 (autophagy flux)” value (THP-1 macrophages) of the same compound?
Answer: Its value is “seemingly reduced”.

Question: What about the “apoptosis induction (cleaved caspase 3)” value (THP-1 macrophages; 10 μM LIN, Western blotting) of the same compound?
Answer: The value was “no apoptosis induction”.

Question: And the “autophagy induction (LC3B-II converted from LC3B-I)” value (THP-1 macrophages; 10 μM LIN, Western blotting)?
Answer: Its value is “induced autophagy”.

Question: And the “autophagosome and autolysosome forming puncta” value (THP-1 macrophages; mRFP-GFP-LC3 reporter THP-1, 10 μM LIN 24 h, Mtb-infected and uninfected)?
Answer: The value was “elevated”.

Question: And the “intracellular Mtb killing in combination with bedaquiline (CFU)” value [2]?
Answer: The value was “eliminated more intracellular Mtb and improved the killing effect of BDQ”.

Question: And the “survival of intracellular Mtb (CFU)” value [2]?
Answer: Its value is “significantly decreased the survival”.

Question: Which IC50 (Mtb GlnA1; [3]) does the source give for `CC(C)(CN)c1nc(-c2ccc(Cl)c(O)c2)c(-c2ccnc(N)n2)[nH]1` [MMV030734] here?
Answer: The IC50 was 1.38 µM.

Question: What about the IC50 (Mtb GlnA1; [4]) of the same compound?
Answer: The IC50 was 1.84 ± 0.09 µM.

Question: Which IC50 (Mtb GlnA1; [3]) does the source give for `Cc1nc(-c2ccccn2)nc(N2CCC(Cc3ccccc3)C2)c1Cl` (stereo not shown) [MMV659004] here?
Answer: Its IC50 is 1.14 µM.

Question: And the IC50 (Mtb GlnA1; [4])?
Answer: Its IC50 is 0.66 ± 0.04 µM.

Question: With `Cc1ccc(NC(=O)c2nc[nH]c2C(=O)Nc2nc3ccccc3[nH]2)c(C)c1` [MMV011903] as the compound, how does the IC50 (Mtb GlnA1; [3]) read?
Answer: Its IC50 is 0.78 µM.

Question: What about the IC50 (Mtb GlnA1; [4]) of the same compound?
Answer: The IC50 was 1.63 ± 0.2 µM.
